{"source": "paper PMC9407119", "about": "“Improving the Specific Activity and Thermostability of Psychrophilic Xylosidase AX543 by Comparative Mutagenesis” (Foods, 2022)", "assay_in_all_cases": "pNP release at […] nm, Lineweaver-Burk", "settings_in_all_cases": "McIlvaine buffer, pH 6.0, 20 °C, 5 min, pNPX 0.1 to 2 mM", "key": {"R7": {"tested_on": "T1, R7", "T1 construct": "gene Xyl43A; Xyl43A with segment A4 (H232-D324) of AX543 at the C-terminus; pET-28a(+), E. coli BL21(DE3), purified", "assay_type": "biochemical, Humicola insolens; Acremonium sp. WCQ6A"}, "R5": {"tested_on": "T2, R5", "T2 construct": "gene AX543; pET-28a(+), E. coli BL21(DE3), purified", "assay_type": "biochemical, Acremonium sp. WCQ6A; Humicola insolens"}, "R6": {"tested_on": "T3, R6", "T3 construct": "gene AX543; pET-28a(+), E. coli BL21(DE3), purified", "assay_type": "biochemical, Humicola insolens; Acremonium sp. WCQ6A"}, "R3": {"tested_on": "T4, R3", "T4 construct": "gene AX543; pET-28a(+), E. coli BL21(DE3), purified", "assay_type": "biochemical, Acremonium sp. WCQ6A; Humicola insolens"}, "R9": {"tested_on": "T5, R9", "T5 construct": "gene Xyl43A; Xyl43A with segment A2 (T68-G160) of AX543; pET-28a(+), E. coli BL21(DE3), purified", "assay_type": "biochemical, Humicola insolens; Acremonium sp. WCQ6A"}, "R10": {"tested_on": "T6, R10", "T6 construct": "gene AX543; Xyl43A with segment A1 (M1-K67) of AX543 at the N-terminus; pET-28a(+), E. coli BL21(DE3), purified", "assay_type": "biochemical, Humicola insolens; Acremonium sp. WCQ6A"}, "R2": {"tested_on": "T7, R2", "T7 construct": "gene AX543; pET-28a(+), E. coli BL21(DE3), purified", "assay_type": "biochemical, Acremonium sp. WCQ6A; Humicola insolens"}, "R8": {"tested_on": "T8, R8", "T8 construct": "gene Xyl43A; Xyl43A with segment A3 (D161-K231) of AX543; pET-28a(+), E. coli BL21(DE3), purified", "assay_type": "biochemical, Humicola insolens; Acremonium sp. WCQ6A"}, "R4": {"tested_on": "T9, R4", "T9 construct": "gene AX543; pET-28a(+), E. coli BL21(DE3), purified", "assay_type": "biochemical, Acremonium sp. WCQ6A; Humicola insolens"}, "R1": {"tested_on": "T10, R1", "T10 construct": "gene AX543; pET-28a(+), E. coli BL21(DE3), purified", "assay_type": "biochemical, Acremonium sp. WCQ6A; Humicola insolens"}}}
{"smiles": "O=[N+]([O-])c1ccc(O[C@@H]2OC[C@@H](O)[C@H](O)[C@H]2O)cc1", "note": "[4-nitrophenyl-β-D-xylopyranoside]", "values": [{"measurement": "Km", "setting": "R7", "result": "1630 ± 60", "unit": "µM"}, {"measurement": "Km", "setting": "R5", "result": "1210 ± 56", "unit": "µM"}, {"measurement": "Km", "setting": "R6", "result": "1190 ± 34", "unit": "µM"}, {"measurement": "Km", "setting": "R3", "result": "1000 ± 25", "unit": "µM"}, {"measurement": "Km", "setting": "R9", "result": "1320 ± 59", "unit": "µM"}, {"measurement": "Km", "setting": "R10", "result": "1870 ± 44", "unit": "µM"}, {"measurement": "Km", "setting": "R2", "result": "1170 ± 33", "unit": "µM"}, {"measurement": "Km", "setting": "R8", "result": "1300 ± 192", "unit": "µM"}, {"measurement": "Km", "setting": "R4", "result": "1840 ± 106", "unit": "µM"}, {"measurement": "Km", "setting": "R1", "result": "1250 ± 48", "unit": "µM"}]}
